Structures can show the parent of a compound that is named as a salt.

By melting point is commonly meant the temperature, or range, at which the solid turns liquid.

The compound `Cc1cc(C)c(N2CCCc3c2nn(C)c3CN2CCc3ccccc3C2)c(C)c1` (as salt: hydrochloride) [Example 11, 2-[2-Methyl-7-(2,4,6-trimethyl-phenyl)-4,5,6,7-tetrahydro-2H-pyrazolo[3,4-b]pyridin-3-ylmethyl]-1,2,3,4-tetrahydroisoquinolinedihydrochloride] showed a melting point of 236.4 to 241 °C. To `Cc1cc(C)c(N2CCCc3c2nn(C)c3Br)c(C)c1` [Example 3, 3-Bromo-2-methyl-7-(2,4,6-trimethyl-phenyl)-4,5,6,7-tetrahydro-2H-pyrazolo[3,4-b]pyridine] belongs 94.6 to 97.9 °C.

For `CCCC(O)(CCC)c1c2c(nn1C)N(c1c(C)cc(C)cc1Cl)CCC2` [Example 5a, 4-[7-(2-Chloro-4,6-dimethylphenyl)-2-methyl-4,5,6,7-tetrahydro-2H-pyrazolo[3,4-b]pyridin-3-yl]heptan-4-ol], the melting point was in the range of 129 to 130 °C. `CCCC(O)(CCC)c1c2c(nn1C)N(c1c(C)cc(C)cc1C)CCC2` [Example 5b, 4-[2-Methyl-7-(2,4,6-trimethylphenyl)-4,5,6,7-tetrahydro-2H-pyrazolo[3,4-b]pyridin-3-yl]heptan-4-ol] had a melting point of 126 to 127.9 °C. In the case of `CCCC(O)(CCC)c1c2c(nn1C)N(c1c(C)cc(C)cc1C)CCCC2` [Example 5d, 4-[2-Methyl-8-(2,4,6-trimethylphenyl)-2,4,5,6,7,8-hexahydro-1,2,8-triazaazulen-3-yl]heptan-4-ol], the melting point is 87 to 91.1 °C. Next, `CCCC(O)(CCC)c1c2c(nn1C)N(c1ccc(Cl)cc1Cl)CCC2` [Example 5e, 4-[7-(2,4-Dichlorophenyl)-2-methyl-4,5,6,7-tetrahydro-2H-pyrazolo[3,4-b]pyridin-3-yl]heptan-4-ol]: 121.4 to 122.6 °C; `COCC(O)(COC)c1c2c(nn1C)N(c1c(C)cc(C)cc1C)CCC2` [Example 5f, 1,3-Dimethoxy-2-[2-methyl-7-(2,4,6-trimethylphenyl)-4,5,6,7-tetrahydro-2H-pyrazolo[3,4-b]pyridin-3-yl]propan-2-ol]: 120.3 to 121.8 °C; `COCCC(O)(COC)c1c2c(nn1C)N(c1c(C)cc(C)cc1C)CCC2` (stereo not shown) [Example 5g, 1,4-Dimethoxy-2-[2-methyl-7-(2,4,6-trimethylphenyl)-4,5,6,7-tetrahydro-2H-pyrazolo[3,4-b]pyridin-3-yl]butan-2-ol]: 107.9 to 110.9 °C. As to `CCCC(O)(c1nccs1)c1c2c(nn1C)N(c1c(C)cc(C)cc1C)CCC2` (stereo not shown) [Example 5h, 1-[2-Methyl-7-(2,4,6-trimethylphenyl)-4,5,6,7-tetrahydro-2H-pyrazolo[3,4-b]pyridin-3-yl]-1-thiazol-2-ylbutan-1-ol], the melting point fell in the range of 160.1 to 165.6 °C. To `Cc1cc(C)c(N2CCCc3c2nn(C)c3C(O)c2ccco2)c(C)c1` (stereo not shown) [Example 5i, Furan-2-yl[2-methyl-7-(2,4,6-trimethyl-phenyl)-4,5,6,7-tetrahydro-2H-pyrazolo[3,4-b]pyridin-3-yl]methanol] belongs 163.1 to 174.4 °C. On to `CCC(O)c1c2c(nn1C)N(c1c(C)cc(C)cc1C)CCC2` (stereo not shown) [Example 5j, 1-[2-Methyl-7-(2,4,6-trimethylphenyl)-4,5,6,7-tetrahydro-2H-pyrazolo[3,4-b]pyridin-3-yl]propan-1-ol], for which the melting point was 179.4 to 180.9 °C. With `CCCC(O)(c1nccn1CC)c1c2c(nn1C)N(c1c(C)cc(C)cc1C)CCC2` (stereo not shown) [Example 5k, 1-(1-Ethyl-1H-imidazol-2-yl)-1-[2-methyl-7-(2,4,6-trimethylphenyl)-4,5,6,7-tetrahydro-2H-pyrazolo[3,4-b]pyridin-3-yl]butan-1-ol], the melting point was 94.9 to 100.9 °C. Consider `Cc1cc(C)c(N2CCCc3c2nn(C)c3C2(O)CCOCC2)c(C)c1` [Example 5l, 4-[2-Methyl-7-(2,4,6-trimethylphenyl)-4,5,6,7-tetrahydro-2H-pyrazolo[3,4-b]pyridin-3-yl]tetrahydropyran-4-ol], for which the melting point fell in the range of 193 to 195.1 °C.

For the origin of these results see patent US7268146B2, “Ring fused pyrazole derivatives as CRF antagonists” (Palo Alto LLC, priority 2001, dated 2007).
